Results taken from publication PMC10726358 (Journal of Medicinal Chemistry, 2023).
In brackets after ≈: the same amount, converted by molar mass. Several values for one entry are separate records, joined by “and”; a condition that tells them apart may be missing. Identical values can stand only once. Counter-ions that a name gives are not always drawn. Like-named read-outs stand apart in the source and are kept apart here.

Legend:
[1] = test system: BRD4 BD2; assay: BRD4 BD2 TR-FRET assay; format: binding, human
Experimental: (§1) As a strategic decision, every compound synthesized across all of GSK’s bromodomain research projects was tested in both a BRD4 BD1 and a BRD4 BD2 TR-FRET assay as part of tier 1 data generation. […] LipE is a straightforward, yet powerful metric for medicinal chemistry teams to normalize potency relative to lipophilicity, a critical factor both for parameters of the human dose equation and also for promiscuity.[43],[44] To aid interpretation, diagonal lines representing different LipE values are shown, with the most desirable space found toward the top left-hand area of the plot representing molecules with the comparatively highest potency per unit of lipophilicity.
(§2) All TR-FRET and hWB cytokine assays have been described previously.[54]

[2] = test system: MCP-1; assay: LPS-stimulated human whole blood (hWB) MCP-1 release assay; format: cell-based; settings: for IC50: LPS-stimulated human whole blood
From the text: The utility of a chemical probe in target validation is directly related to its quality, with important publications detailing requirements to aid researchers.[36]−[38] […] It was accepted that selectivity would be judged initially through a mutant BRD4 TR-FRET assay and would likely shift depending on the protein construct and assay format. […] Previous studies have shown that BET BD1 inhibition is sufficient to inhibit in vitro production of MCP-1 in LPS-stimulated hWB and, as such, served as a relevant measure of cellular target engagement and, concomitantly, proof of cellular permeability.[12],[39] Selectivity over other human bromodomains outside of the BET family, known collectively as non-BET bromodomains, was also required,[40] with a ≥ 100-fold selectivity window targeted. To ensure the molecules remained within developable chemical space, a target property forecast index (PFI) as defined by chromLogDpH7.4 + number of aromatic rings ≤6 was set.[41]
(§3) To understand cellular target engagement, 21 was tested in an LPS-stimulated hWB assay measuring inhibition of the inflammatory mediator MCP-1 secretion.
as §2

[3] = CAD aqueous solubility
Experimental: as §3
ChromatographicLogD at pH 7.4, artificial membrane permeability, CLND solubility, and CAD solubility were measured using published protocols.[55]

[4] = test system: BRD4 BD1; format: binding, human; settings: TR-FRET
Experimental: as §1, §2

[5] = Chromatographic LogD at pH 7.4; settings: pH 7.4
[6] = read-out: hWB MCP-1 pIC50 (converted)

SMILES | BRD4 BD2 FRET pIC50 [1] | IC50 [2, 6] [nM] | solubility [3] [µg/mL] | BRD4 BD1 FRET pIC50 [4] | fold selectivity (BRD4 BD1 over BRD4 BD2) [4] | chromatographic logD [5] | IC50 ([2]; read-out: hWB MCP-1 IC50) [nM] | drop of hWB activity compared to BRD4 BD1 potency ([2]; hWB MCP-1 vs BRD4 BD1 TR-FRET) [fold]
Cc1cc(-c2nc3ccccc3n2C[C@@H]2CCCN(C(=O)C3CCN(CC(F)(F)F)CC3)C2)cn(C)c1=O [Compound 36, (S)-1,3-Dimethyl-5-(1-((1-(1-(2,2,2-trifluoroethyl)piperidine-4-carbonyl)piperidin-3-yl)methyl)-1H-benzo[d]imidazole-2-yl)pyridin-2(1H)-one] | 4.7 | 1260 | ≥ 201 | 6.3 | 40 fold | 4.2 | – | –
Cc1cc(-c2nc3ccccc3n2C[C@@H]2CCCN(C(=O)CCCN)C2)cn(C)c1=O [Compound 21, (S)-5-(1-((1-(4-Aminobutanoyl)piperidin-3-yl)methyl)-1H-benzo[d]imidazole-2-yl)-1,3-dimethylpyridin-2(1H)-one] | 5.6 | 501 | 113 (≈ 268 µM) | 7.8 | 158 fold | 1.2 | 500 | 40
Cc1cc(-c2nc3ccccc3n2C[C@@H]2CCCN(C(=O)c3cnc[nH]3)C2)cn(C)c1=O [Compound 26, (S)-5-(1-((1-(1H-Imidazole-5-carbonyl)piperidin-3-yl)methyl)-1H-benzo[d]imidazole-2-yl)-1,3-dimethylpyridin-2(1H)-one, Formic Acid Salt] | 4.9 | 2510 | ≥ 160 | 7.0 | 126 fold | 1.9 | – | –
Cc1cc(-c2nc3ccccc3n2C[C@@H]2CCCN(C(=O)[C@H]3CC[C@H](N)C3)C2)cn(C)c1=O [Compound 25, 5-(1-(((S)-1-((1S,3S)-3-Aminocyclopentane-1-carbonyl)piperidin-3-yl)methyl)-1H-benzo[d]imidazole-2-yl)-1,3-dimethylpyridin-2(1H)-one] | 5.0 | 1000 | ≥ 157 | 7.7 | 500 fold and 501 fold | 1.4 | – | –
Cc1cc(-c2nc3ccccc3n2C[C@@H]2CCCN(C(=O)[C@H]3CCNC3)C2)cn(C)c1=O [Compound 24, 1,3-Dimethyl-5-(1-(((S)-1-((S)-pyrrolidine-3-carbonyl)piperidin-3-yl)methyl)-1H-benzo[d]imidazole-2-yl)pyridin-2(1H)-one] | 5.3 | 1000 | ≥ 208 | 7.6 | 200 fold | 1.3 | – | –
Cc1cc(-c2nc3ccccc3n2C[C@@H]2CCCN(C(=O)C3CCNCC3)C2)cn(C)c1=O [Compound 27, (S)-1,3-Dimethyl-5-(1-((1-(piperidine-4-carbonyl)piperidin-3-yl)methyl)-1H-benzo[d]imidazole-2-yl)pyridin-2(1H)-one] | 4.9 | 1000 | ≥ 215 | 7.5 | 398 fold | 1.3 | – | –
Cc1cc(-c2nc3ccccc3n2C[C@@H]2CCCN(C(=O)C3CCN(C)CC3)C2)cn(C)c1=O [Compound 30, (S)-1,3-Dimethyl-5-(1-((1-(1-methylpiperidine-4-carbonyl)piperidin-3-yl)methyl)-1H-benzo[d]imidazole-2-yl)pyridin-2(1H)-one] | 4.8 | 251 | ≥ 237 | 7.6 | 631 fold | 1.5 | – | –
Cc1cc(-c2nc3ccccc3n2C[C@@H]2CCCN(C(=O)C3CCOCC3)C2)cn(C)c1=O [Compound 32, (S)-1,3-Dimethyl-5-(1-((1-(tetrahydro-2H-pyran-4-carbonyl)piperidin-3-yl)methyl)-1H-benzo[d]imidazole-2-yl)pyridin-2(1H)-one] | 4.7 | 794 | ≥ 245 | 6.7 | 100 fold | 2.7 | – | –
